# From ChEMBL document CHEMBL3045426, “Synthesis, Antiviral and Antibacterial Activities of Isatin Mannich Bases” (Med Chem Res, 2005)
# System: not listed separately
# Test: Selectivity index, ratio of CC50 for human MT4 cells to EC50 for HIV1 3B infected in MT4 cells
# Assay type: toxicity, cell-based
# Settings: read-out: Ratio CC50/EC50
row,SMILES,selectivity ratio
1,COc1cc(Cc2cnc(/N=C3\C(=O)N(CN4CCCCC4C)c4ccc(Cl)cc43)nc2N)cc(OC)c1OC (centres undefined),3

# System: Vibrio cholerae
# Test: Antimicrobial activity against Vibrio cholerae 01 after 18 to 20 hr by agar dilution method
# Assay type: functional
# Settings: 1
row,SMILES,MIC [µg/mL]
1,COc1cc(Cc2cnc(/N=C3\C(=O)N(CN4CCCCC4C)c4ccc(Cl)cc43)nc2N)cc(OC)c1OC (centres undefined),4.88

# System: Priestia megaterium
# Test: Antimicrobial activity against Bacillus megaterium after 18 to 20 hr by agar dilution method
# Assay type: functional
# Settings: not given
row,SMILES,MIC [µg/mL]
1,COc1cc(Cc2cnc(/N=C3\C(=O)N(CN4CCCCC4C)c4ccc(Cl)cc43)nc2N)cc(OC)c1OC (centres undefined),625

# System: Enterobacter
# Test: Antimicrobial activity against Enterobacter after 18 to 20 hr by agar dilution method
# Assay type: functional
# Settings: not given
row,SMILES,MIC [µg/mL]
1,COc1cc(Cc2cnc(/N=C3\C(=O)N(CN4CCCCC4C)c4ccc(Cl)cc43)nc2N)cc(OC)c1OC (centres undefined),625

# System: Citrobacter freundii
# Test: Antimicrobial activity against Citrobacter freundii after 18 to 20 hr by agar dilution method
# Assay type: functional
# Settings: not given
row,SMILES,MIC [µg/mL]
1,COc1cc(Cc2cnc(/N=C3\C(=O)N(CN4CCCCC4C)c4ccc(Cl)cc43)nc2N)cc(OC)c1OC (centres undefined),625

# System: Salmonella enteritidis
# Test: Antimicrobial activity against Salmonella enterica subsp. enterica serovar Enteritidis after 18 to 20 hr by agar dilution method
# Assay type: functional
# Settings: not given
row,SMILES,MIC [µg/mL]
1,COc1cc(Cc2cnc(/N=C3\C(=O)N(CN4CCCCC4C)c4ccc(Cl)cc43)nc2N)cc(OC)c1OC (centres undefined),625

# System: Salmonella typhimurium
# Test: Antimicrobial activity against Salmonella enterica subsp. enterica serovar Typhimurium after 18 to 20 hr by agar dilution method
# Assay type: functional
# Settings: not given
row,SMILES,MIC [µg/mL]
1,COc1cc(Cc2cnc(/N=C3\C(=O)N(CN4CCCCC4C)c4ccc(Cl)cc43)nc2N)cc(OC)c1OC (centres undefined),1250

# System: Proteus mirabilis
# Test: Antimicrobial activity against Proteus mirabilis after 18 to 20 hr by agar dilution method
# Assay type: functional
# Settings: not given
row,SMILES,MIC [µg/mL]
1,COc1cc(Cc2cnc(/N=C3\C(=O)N(CN4CCCCC4C)c4ccc(Cl)cc43)nc2N)cc(OC)c1OC (centres undefined),625

# System: Proteus vulgaris
# Test: Antimicrobial activity against Proteus vulgaris after 18 to 20 hr by agar dilution method
# Assay type: functional
# Settings: not given
row,SMILES,MIC [µg/mL]
1,COc1cc(Cc2cnc(/N=C3\C(=O)N(CN4CCCCC4C)c4ccc(Cl)cc43)nc2N)cc(OC)c1OC (centres undefined),625

# System: Edwardsiella tarda
# Test: Antimicrobial activity against Edwardsiella tarda after 18 to 20 hr by agar dilution method
# Assay type: functional
# Settings: not given
row,SMILES,MIC [µg/mL]
1,COc1cc(Cc2cnc(/N=C3\C(=O)N(CN4CCCCC4C)c4ccc(Cl)cc43)nc2N)cc(OC)c1OC (centres undefined),1250

# System: Escherichia coli
# Test: Antimicrobial activity against Escherichia coli NCTC 10418 after 18 to 20 hr by agar dilution method
# Assay type: functional
# Settings: not given
row,SMILES,MIC [µg/mL]
1,COc1cc(Cc2cnc(/N=C3\C(=O)N(CN4CCCCC4C)c4ccc(Cl)cc43)nc2N)cc(OC)c1OC (centres undefined),625

# System: Salmonella typhi
# Test: Antimicrobial activity against Salmonella enterica subsp. enterica serovar Typhi after 18 to 20 hr by agar dilution method
# Assay type: functional
# Settings: not given
row,SMILES,MIC [µg/mL]
1,COc1cc(Cc2cnc(/N=C3\C(=O)N(CN4CCCCC4C)c4ccc(Cl)cc43)nc2N)cc(OC)c1OC (centres undefined),1250

# System: Salmonella paratyphi
# Test: Antimicrobial activity against Salmonella enterica subsp. enterica serovar Paratyphi A after 18 to 20 hr by agar dilution method
# Assay type: functional
# Settings: not given
row,SMILES,MIC [µg/mL]
1,COc1cc(Cc2cnc(/N=C3\C(=O)N(CN4CCCCC4C)c4ccc(Cl)cc43)nc2N)cc(OC)c1OC (centres undefined),625

# System: Vibrio parahaemolyticus
# Test: Antimicrobial activity against Vibrio parahaemolyticus after 18 to 20 hr by agar dilution method
# Assay type: functional
# Settings: not given
row,SMILES,MIC [µg/mL]
1,COc1cc(Cc2cnc(/N=C3\C(=O)N(CN4CCCCC4C)c4ccc(Cl)cc43)nc2N)cc(OC)c1OC (centres undefined),1.22

# System: Vibrio cholerae
# Test: Antimicrobial activity against Vibrio cholerae 0139 after 18 to 20 hr by agar dilution method
# Assay type: functional
# Settings: 139
row,SMILES,MIC [µg/mL]
1,COc1cc(Cc2cnc(/N=C3\C(=O)N(CN4CCCCC4C)c4ccc(Cl)cc43)nc2N)cc(OC)c1OC (centres undefined),625

# System: Vibrio fluvialis
# Test: Antimicrobial activity against Vibrio fluvialis after 18 to 20 hr by agar dilution method
# Assay type: functional
# Settings: not given
row,SMILES,MIC [µg/mL]
1,COc1cc(Cc2cnc(/N=C3\C(=O)N(CN4CCCCC4C)c4ccc(Cl)cc43)nc2N)cc(OC)c1OC (centres undefined),1250

# System: Vibrio mimicus
# Test: Antimicrobial activity against Vibrio mimicus after 18 to 20 hr by agar dilution method
# Assay type: functional
# Settings: not given
row,SMILES,MIC [µg/mL]
1,COc1cc(Cc2cnc(/N=C3\C(=O)N(CN4CCCCC4C)c4ccc(Cl)cc43)nc2N)cc(OC)c1OC (centres undefined),0.61

# System: Pseudomonas aeruginosa
# Test: Antimicrobial activity against Pseudomonas aeruginosa after 18 to 20 hr by agar dilution method
# Assay type: functional
# Settings: not given
row,SMILES,MIC [µg/mL]
1,COc1cc(Cc2cnc(/N=C3\C(=O)N(CN4CCCCC4C)c4ccc(Cl)cc43)nc2N)cc(OC)c1OC (centres undefined),1250

# System: Staphylococcus aureus
# Test: Antimicrobial activity against Staphylococcus aureus after 18 to 20 hr by agar dilution method
# Assay type: functional
# Settings: not given
row,SMILES,MIC [µg/mL]
1,COc1cc(Cc2cnc(/N=C3\C(=O)N(CN4CCCCC4C)c4ccc(Cl)cc43)nc2N)cc(OC)c1OC (centres undefined),312

# System: Morganella morganii
# Test: Antimicrobial activity against Morganella morganii after 18 to 20 hr by agar dilution method
# Assay type: functional
# Settings: not given
row,SMILES,MIC [µg/mL]
1,COc1cc(Cc2cnc(/N=C3\C(=O)N(CN4CCCCC4C)c4ccc(Cl)cc43)nc2N)cc(OC)c1OC (centres undefined),1250

# System: Shigella boydii
# Test: Antimicrobial activity against Shigella boydii after 18 to 20 hr by agar dilution method
# Assay type: functional
# Settings: not given
row,SMILES,MIC [µg/mL]
1,COc1cc(Cc2cnc(/N=C3\C(=O)N(CN4CCCCC4C)c4ccc(Cl)cc43)nc2N)cc(OC)c1OC (centres undefined),4.88

# System: Plesiomonas
# Test: Antimicrobial activity against Plesiomonas after 18 to 20 hr by agar dilution method
# Assay type: functional
# Settings: not given
row,SMILES,MIC [µg/mL]
1,COc1cc(Cc2cnc(/N=C3\C(=O)N(CN4CCCCC4C)c4ccc(Cl)cc43)nc2N)cc(OC)c1OC (centres undefined),19.5

# System: Shigella sonnei
# Test: Antimicrobial activity against Shigella sonnei after 18 to 20 hr by agar dilution method
# Assay type: functional
# Settings: not given
row,SMILES,MIC [µg/mL]
1,COc1cc(Cc2cnc(/N=C3\C(=O)N(CN4CCCCC4C)c4ccc(Cl)cc43)nc2N)cc(OC)c1OC (centres undefined),1250

# System: Klebsiella pneumoniae
# Test: Antimicrobial activity against Klebsiella pneumoniae after 18 to 20 hr by agar dilution method
# Assay type: functional
# Settings: not given
row,SMILES,MIC [µg/mL]
1,COc1cc(Cc2cnc(/N=C3\C(=O)N(CN4CCCCC4C)c4ccc(Cl)cc43)nc2N)cc(OC)c1OC (centres undefined),1250

# System: Klebsiella pneumoniae
# Test: Antimicrobial activity against Klebsiella pneumoniae subsp. ozaenae after 18 to 20 hr by agar dilution method
# Assay type: functional
# Settings: not given
row,SMILES,MIC [µg/mL]
1,COc1cc(Cc2cnc(/N=C3\C(=O)N(CN4CCCCC4C)c4ccc(Cl)cc43)nc2N)cc(OC)c1OC (centres undefined),1250

# System: Mycobacterium tuberculosis
# Test: Antimycobacterial activity against Mycobacterium tuberculosis H37Rv ATCC 27294 at 6.25 ug/ml by MABA
# Assay type: functional
# Settings: not given
row,SMILES,inhibition at 6.25 µg/mL [%]
1,COc1cc(Cc2cnc(/N=C3\C(=O)N(CN4CCCCC4C)c4ccc(Cl)cc43)nc2N)cc(OC)c1OC (centres undefined),10

# System: not listed separately
# Test: Cytotoxicity against Homo sapiens (human) HuH7 cells assessed as cell growth at 50 ug/ml after 3 days by Neutral red assay
# Assay type: cell-based, Huh-7
# Settings: read-out: Activity
row,SMILES,"viability at 72 h, 50 ug/ml [%]"
1,COc1cc(Cc2cnc(/N=C3\C(=O)N(CN4CCCCC4C)c4ccc(Cl)cc43)nc2N)cc(OC)c1OC (centres undefined),112

# System: not listed separately
# Test: Cytotoxicity against Homo sapiens (human) CEM cells after 5 days by MTT assay
# Assay type: cell-based
# Settings: CEM cells (CCRF-CEM)
row,SMILES,CC50 at 120 h [µg/mL]
1,COc1cc(Cc2cnc(/N=C3\C(=O)N(CN4CCCCC4C)c4ccc(Cl)cc43)nc2N)cc(OC)c1OC (centres undefined),> 83.8

# System: Human immunodeficiency virus 1
# Test: Antiviral activity against Human immunodeficiency virus 1 IIIB infected CEM cells assessed as protection against viral infection after 6 days by XTT assay
# Assay type: functional, CCRF-CEM
# Parameters: concentration or dose not given beside the values
# Settings: not given
row,SMILES,Activity [%]
1,COc1cc(Cc2cnc(/N=C3\C(=O)N(CN4CCCCC4C)c4ccc(Cl)cc43)nc2N)cc(OC)c1OC (centres undefined),20.7

# System: Human immunodeficiency virus 1
# Test: Antiviral activity against Human immunodeficiency virus 1 IIIB infected CEM cells assessed as inhibition of virus-induced cytopathicity after 6 days by XTT assay
# Assay type: functional, organism-based
# Settings: CCRF-CEM, 144 h
row,SMILES,EC50 [µg/mL]
1,COc1cc(Cc2cnc(/N=C3\C(=O)N(CN4CCCCC4C)c4ccc(Cl)cc43)nc2N)cc(OC)c1OC (centres undefined),> 83.8

# System: not listed separately
# Test: Cytotoxicity against Homo sapiens (human) MT4 cells after 5 days by MTT assay
# Assay type: cell-based
# Settings: not given
row,SMILES,CC50 at 120 h [µg/mL]
1,COc1cc(Cc2cnc(/N=C3\C(=O)N(CN4CCCCC4C)c4ccc(Cl)cc43)nc2N)cc(OC)c1OC (centres undefined),97.3

# System: Human immunodeficiency virus 1
# Test: Antiviral activity against Human immunodeficiency virus 1 IIIB infected MT4 cells assessed as inhibition of virus-induced cytopathicity after 5 days by MTT assay
# Assay type: functional, organism-based
# Settings: MT4, 120 h
row,SMILES,EC50 [µg/mL]
1,COc1cc(Cc2cnc(/N=C3\C(=O)N(CN4CCCCC4C)c4ccc(Cl)cc43)nc2N)cc(OC)c1OC (centres undefined),32.6

# System: Hepatitis C virus
# Test: Antiviral activity against Hepatitis C virus BM4-5 infected in Huh7 cells assessed as inhibition of viral RNA replication by phosphor screening method
# Assay type: functional, Hepacivirus hominis, Huh-7
# Settings: not given
row,SMILES,inhibition (INH) [%]
1,COc1cc(Cc2cnc(/N=C3\C(=O)N(CN4CCCCC4C)c4ccc(Cl)cc43)nc2N)cc(OC)c1OC (centres undefined),89

# System: Human immunodeficiency virus 1
# Test: Antiviral activity against Human immunodeficiency virus 1 IIIB infected MT4 cells assessed as protection against viral infection after 5 days by MTT assay
# Assay type: functional
# Parameters: concentration or dose not given beside the values
# Settings: not given
row,SMILES,Activity [%]
1,COc1cc(Cc2cnc(/N=C3\C(=O)N(CN4CCCCC4C)c4ccc(Cl)cc43)nc2N)cc(OC)c1OC (centres undefined),62.6
